Two compounds from publication PMC12508057, “Discovery of ETI41 and ETI60: novel selective endosomal Toll-like receptor inhibitors for the treatment of autoimmune diseases” (Experimental & Molecular Medicine, 2025) can be followed below.

The assay relates to TLR7- and TLR9-dependent downstream signaling. The assay is described as follows: Western blot of TLR7- and TLR9-dependent downstream signaling in RAW 264.7. Format: cell-based, mouse. Particulars: RAW 264.7, 5 or 10 μM. The procedure: RAW 264.7 cells were seeded into 60-mm dishes at 1 × 10^6 cells per dish. After 30 min of treatment with ETI41 or ETI60, the cells were stimulated with 2 μM IMQ (a TLR7 agonist) or 1 μM ODN2395 (a TLR9 agonist). Lysates were prepared using a Mammalian Protein Extraction Kit (Thermo Fisher Scientific) with protease and phosphatase inhibitors. Nuclear proteins were extracted using an NE-PER Nuclear and Cytoplasmic Extraction Kit (Thermo Fisher Scientific). Proteins were quantified using a bicinchoninic acid kit (Sigma-Aldrich), separated by SDS–PAGE and transferred onto nitrocellulose membranes (GE Healthcare). Membranes were incubated with specific primary antibodies and horseradish peroxidase-conjugated secondary antibodies. […] Protein bands were detected using a chemiluminescent substrate (SuperSignal West Pico PLUS; Thermo Fisher Scientific) and visualized using a Fuji LAS-3000 system (Fujifilm).
Fig. 2 ETI41 and ETI60 inhibit TLR7- and TLR9-dependent downstream signaling. a, b Western blot analysis was used to quantify the protein levels of phosphorylated p-ERK, p-JNK, p38, Iκ-Bα and p65. […] Statistical differences between the induced and other cases were analyzed and verified using a one-tailed Student’s t-test (*P < 0.05, **P < 0.01, ***P < 0.001). e–g The TLR7 agonist IMQ (1 μM) was used in 3’ RNA-seq analysis to induce signaling associated with immune responses in RAW 264.7 cells. […]

Take `Cc1cc2c(N)c3c(nc2n1CCCN(C)C)CCCCCC3` [ETI41]: the “IMQ- or ODN2395-induced phosphorylation of MAPKs (p-ERK, p-JNK, p-p38), nuclear translocation of NF-κB p65, Iκ-Bα degradation and IRF7 expression” value is recorded as “inhibited”. Next, `COc1ccc2c3c(N)c4c(nc3n(CCCN(C)C)c2c1)CCCC4` [ETI60]: “inhibited”.
